From patent US11572590B2, “Methods for evaluating tumor cell spheroids using 3D microfluidic cell culture device” (Dana-Farber Cancer Institute, Inc., priority 2017, dated 2023)
Where two headings read alike, the source gives them in different places.

Experiments:
Experiment in all cases: SelectScreen Kinase Profiling, single point inhibition and IC50 for off-target kinases
Type in all cases: biochemical
off-target kinases [1] = target: off-target kinases (Homo sapiens, UniProt O96017); conditions: CHEK2 (CHK2), ZLYTE, ATP Km app
off-target kinases [2] = target: off-target kinases (Homo sapiens, UniProt P11309); conditions: PIM1, ZLYTE, ATP Km app
off-target kinases [3] = target: off-target kinases (Homo sapiens, UniProt P17612); conditions: PRKACA (PKA), ZLYTE, ATP Km app
off-target kinases [4] = target: off-target kinases (Homo sapiens, UniProt P17948); conditions: FLT1 (VEGFR1), ZLYTE, ATP Km app
off-target kinases [5] = target: off-target kinases (Homo sapiens, UniProt P22607); conditions: FGFR3, ZLYTE, ATP Km app
off-target kinases [6] = target: off-target kinases (Homo sapiens, UniProt P49840); conditions: GSK3A (GSK3 alpha), ZLYTE, ATP Km app
off-target kinases [7] = target: T1, off-target kinases (Homo sapiens, UniProt Q8TD19); conditions: NEK9, ATP Km app, ZLYTE
T1 sequence (Q8TD19 1-979): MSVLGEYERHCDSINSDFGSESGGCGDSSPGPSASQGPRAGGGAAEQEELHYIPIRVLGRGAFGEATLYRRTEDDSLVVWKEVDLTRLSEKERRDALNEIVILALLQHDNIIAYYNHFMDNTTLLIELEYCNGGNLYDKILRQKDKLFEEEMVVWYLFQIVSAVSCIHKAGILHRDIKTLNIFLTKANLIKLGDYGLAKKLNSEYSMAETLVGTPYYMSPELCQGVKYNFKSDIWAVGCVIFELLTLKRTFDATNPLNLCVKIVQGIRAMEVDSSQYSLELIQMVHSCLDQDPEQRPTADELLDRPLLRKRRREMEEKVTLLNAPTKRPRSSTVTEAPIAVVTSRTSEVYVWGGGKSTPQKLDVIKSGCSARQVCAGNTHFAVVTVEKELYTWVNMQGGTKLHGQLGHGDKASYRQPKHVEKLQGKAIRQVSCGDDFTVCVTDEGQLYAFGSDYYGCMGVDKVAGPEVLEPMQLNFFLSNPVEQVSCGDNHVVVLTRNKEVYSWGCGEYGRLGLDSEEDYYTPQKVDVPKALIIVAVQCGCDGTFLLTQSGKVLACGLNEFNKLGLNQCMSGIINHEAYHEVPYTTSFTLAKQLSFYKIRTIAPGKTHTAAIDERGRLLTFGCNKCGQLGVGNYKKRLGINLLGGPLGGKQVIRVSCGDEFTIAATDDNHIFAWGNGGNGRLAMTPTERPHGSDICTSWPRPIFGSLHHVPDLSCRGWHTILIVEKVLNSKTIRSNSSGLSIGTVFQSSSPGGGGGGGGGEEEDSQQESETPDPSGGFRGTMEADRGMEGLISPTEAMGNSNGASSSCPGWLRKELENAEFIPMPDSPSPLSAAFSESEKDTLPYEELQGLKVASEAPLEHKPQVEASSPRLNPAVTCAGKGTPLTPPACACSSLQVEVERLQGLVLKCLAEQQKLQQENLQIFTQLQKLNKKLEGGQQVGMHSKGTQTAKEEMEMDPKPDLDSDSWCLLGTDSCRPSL

Chain of off-target kinases (Homo sapiens, UniProt P11309) (P11309 whole entry): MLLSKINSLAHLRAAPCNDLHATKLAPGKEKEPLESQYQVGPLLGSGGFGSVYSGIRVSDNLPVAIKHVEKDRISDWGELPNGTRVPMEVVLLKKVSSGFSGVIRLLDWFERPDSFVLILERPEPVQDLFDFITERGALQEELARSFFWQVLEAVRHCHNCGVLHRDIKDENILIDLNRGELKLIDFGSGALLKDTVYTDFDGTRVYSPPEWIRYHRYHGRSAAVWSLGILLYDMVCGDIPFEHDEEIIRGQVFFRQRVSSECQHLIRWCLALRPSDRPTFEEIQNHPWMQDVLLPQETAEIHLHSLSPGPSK
Chain of off-target kinases (Homo sapiens, UniProt O96017) (O96017 whole entry): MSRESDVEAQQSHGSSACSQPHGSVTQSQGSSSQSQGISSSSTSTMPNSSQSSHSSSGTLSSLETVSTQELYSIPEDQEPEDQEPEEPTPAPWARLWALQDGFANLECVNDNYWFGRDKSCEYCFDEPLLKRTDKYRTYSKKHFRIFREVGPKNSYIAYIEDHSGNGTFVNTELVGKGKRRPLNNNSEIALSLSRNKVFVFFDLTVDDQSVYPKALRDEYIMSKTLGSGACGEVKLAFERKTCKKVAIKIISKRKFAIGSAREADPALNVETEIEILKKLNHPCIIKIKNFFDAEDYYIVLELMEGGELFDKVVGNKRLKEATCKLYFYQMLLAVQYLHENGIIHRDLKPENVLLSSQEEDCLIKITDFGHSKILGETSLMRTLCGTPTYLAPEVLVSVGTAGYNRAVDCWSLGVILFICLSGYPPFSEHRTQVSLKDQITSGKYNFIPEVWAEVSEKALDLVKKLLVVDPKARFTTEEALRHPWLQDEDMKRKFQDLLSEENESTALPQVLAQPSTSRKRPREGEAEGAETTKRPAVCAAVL
Chain of off-target kinases (Homo sapiens, UniProt P49840) (P49840 whole entry): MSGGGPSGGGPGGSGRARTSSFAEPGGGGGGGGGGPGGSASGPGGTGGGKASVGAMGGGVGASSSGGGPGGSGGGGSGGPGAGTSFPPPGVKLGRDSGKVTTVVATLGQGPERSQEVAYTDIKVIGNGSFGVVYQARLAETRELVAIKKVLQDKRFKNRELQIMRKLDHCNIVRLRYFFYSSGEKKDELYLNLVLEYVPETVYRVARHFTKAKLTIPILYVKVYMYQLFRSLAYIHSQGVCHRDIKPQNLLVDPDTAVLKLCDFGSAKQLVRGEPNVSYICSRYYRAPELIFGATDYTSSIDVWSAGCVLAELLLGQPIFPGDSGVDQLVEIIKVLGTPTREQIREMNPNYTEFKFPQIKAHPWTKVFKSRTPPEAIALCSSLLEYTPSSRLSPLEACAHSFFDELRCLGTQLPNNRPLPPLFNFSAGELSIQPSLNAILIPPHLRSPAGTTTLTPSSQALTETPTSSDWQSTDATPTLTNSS
Chain of off-target kinases (Homo sapiens, UniProt P22607) (P22607 23-806): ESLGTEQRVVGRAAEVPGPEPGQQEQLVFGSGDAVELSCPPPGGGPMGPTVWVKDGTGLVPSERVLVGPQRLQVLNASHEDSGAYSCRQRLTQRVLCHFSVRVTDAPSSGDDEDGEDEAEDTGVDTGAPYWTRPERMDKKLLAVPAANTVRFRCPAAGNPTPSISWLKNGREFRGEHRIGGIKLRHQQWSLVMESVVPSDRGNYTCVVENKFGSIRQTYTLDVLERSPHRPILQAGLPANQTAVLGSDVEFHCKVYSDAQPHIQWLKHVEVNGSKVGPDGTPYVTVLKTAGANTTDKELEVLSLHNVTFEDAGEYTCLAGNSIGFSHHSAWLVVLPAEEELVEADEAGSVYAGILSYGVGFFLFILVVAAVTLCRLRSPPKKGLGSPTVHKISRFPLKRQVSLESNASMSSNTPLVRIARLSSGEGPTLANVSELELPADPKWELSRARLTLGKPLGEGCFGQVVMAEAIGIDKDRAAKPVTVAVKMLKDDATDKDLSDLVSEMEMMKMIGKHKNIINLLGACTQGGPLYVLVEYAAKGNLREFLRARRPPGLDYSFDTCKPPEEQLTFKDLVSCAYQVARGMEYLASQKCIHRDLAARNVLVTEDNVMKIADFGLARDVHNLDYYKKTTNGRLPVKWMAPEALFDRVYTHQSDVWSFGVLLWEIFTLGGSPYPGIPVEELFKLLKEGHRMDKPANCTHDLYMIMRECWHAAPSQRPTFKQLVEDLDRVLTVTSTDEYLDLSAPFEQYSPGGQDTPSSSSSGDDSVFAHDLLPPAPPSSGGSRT
Chain of off-target kinases (Homo sapiens, UniProt P17948) (P17948 27-1338): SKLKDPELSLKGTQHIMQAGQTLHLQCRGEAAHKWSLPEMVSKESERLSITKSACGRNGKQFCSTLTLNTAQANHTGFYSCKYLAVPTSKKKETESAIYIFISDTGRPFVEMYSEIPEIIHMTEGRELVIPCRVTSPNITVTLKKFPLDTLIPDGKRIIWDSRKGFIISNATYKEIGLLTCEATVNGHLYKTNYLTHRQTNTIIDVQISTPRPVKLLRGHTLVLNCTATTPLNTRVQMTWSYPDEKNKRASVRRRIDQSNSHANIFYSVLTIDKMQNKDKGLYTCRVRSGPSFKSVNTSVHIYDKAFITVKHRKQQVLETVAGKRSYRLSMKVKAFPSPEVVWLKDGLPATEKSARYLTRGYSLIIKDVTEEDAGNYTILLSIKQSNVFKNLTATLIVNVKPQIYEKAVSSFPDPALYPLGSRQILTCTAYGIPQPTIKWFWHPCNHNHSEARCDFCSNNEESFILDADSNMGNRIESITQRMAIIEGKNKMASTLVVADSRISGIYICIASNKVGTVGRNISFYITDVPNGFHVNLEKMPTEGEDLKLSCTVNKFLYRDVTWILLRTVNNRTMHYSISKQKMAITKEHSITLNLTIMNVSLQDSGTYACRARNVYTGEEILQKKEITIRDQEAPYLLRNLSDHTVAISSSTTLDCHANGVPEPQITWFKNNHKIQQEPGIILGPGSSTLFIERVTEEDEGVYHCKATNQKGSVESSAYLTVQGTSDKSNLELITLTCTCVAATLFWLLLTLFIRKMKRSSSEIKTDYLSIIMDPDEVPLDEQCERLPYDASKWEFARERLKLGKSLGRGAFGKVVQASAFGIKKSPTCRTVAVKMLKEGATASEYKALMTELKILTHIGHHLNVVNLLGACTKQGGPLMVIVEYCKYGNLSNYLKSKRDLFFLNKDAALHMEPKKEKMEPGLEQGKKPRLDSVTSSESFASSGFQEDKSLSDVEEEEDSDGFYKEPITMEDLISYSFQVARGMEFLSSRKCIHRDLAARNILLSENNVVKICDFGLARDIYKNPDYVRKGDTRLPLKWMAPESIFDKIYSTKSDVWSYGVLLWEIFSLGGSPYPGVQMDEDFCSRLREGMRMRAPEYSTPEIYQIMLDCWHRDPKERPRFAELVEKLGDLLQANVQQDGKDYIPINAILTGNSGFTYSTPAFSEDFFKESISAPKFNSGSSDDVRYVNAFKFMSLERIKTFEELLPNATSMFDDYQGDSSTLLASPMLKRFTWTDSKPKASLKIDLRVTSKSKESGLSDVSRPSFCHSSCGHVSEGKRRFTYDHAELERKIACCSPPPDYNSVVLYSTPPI

**Q.** What does the source list for `N#Cc1cc(-c2ncnc(Nc3ccc(N4CCN(C5COC5)CC4)cc3)n2)ccc1OC1CCOCC1` [Compound 1, 5-(4-((4-(4-(oxetan-3-yl)piperazin-1-yl)phenyl)amino)-1,3,5-triazin-2-yl)-2-((tetrahydro-2H-pyran-4-yl)oxy)benzonitrile]?
**A.** inhibition (off-target kinases [1]; read-out: % Inhibition 1): 27%; inhibition (off-target kinases [1]; read-out: % Inhibition 2): 27%; inhibition (off-target kinases [1]; read-out: % Inhibition Avg): 27%; inhibition (off-target kinases [2]; read-out: % Inhibition 1): 11%; inhibition (off-target kinases [2]; read-out: % Inhibition 2): 3%; inhibition (off-target kinases [2]; read-out: % Inhibition Avg): 7%; inhibition (off-target kinases [3]; read-out: % Inhibition 1): 4%; inhibition (off-target kinases [3]; read-out: % Inhibition 2): 1%; inhibition (off-target kinases [3]; read-out: % Inhibition Avg): 3%; inhibition (off-target kinases [4]; read-out: % Inhibition 1): 7%; inhibition (off-target kinases [4]; read-out: % Inhibition 2): 4%; inhibition (off-target kinases [4]; read-out: % Inhibition Avg): 6%; inhibition (off-target kinases [5]; read-out: % Inhibition 1): 6%; inhibition (off-target kinases [5]; read-out: % Inhibition 2): 4%; inhibition (off-target kinases [5]; read-out: % Inhibition Avg): 5%; inhibition (off-target kinases [6]; read-out: % Inhibition 1): 20%; inhibition (off-target kinases [6]; read-out: % Inhibition 2): 22%; inhibition (off-target kinases [6]; read-out: % Inhibition Avg): 21%; inhibition (off-target kinases [7]; read-out: % Inhibition 1): 46%; inhibition (off-target kinases [7]; read-out: % Inhibition 2): 45%; inhibition (off-target kinases [7]; read-out: % Inhibition Avg): 46%
